Experimental data: patent US11352371B2, “Thienopyrimidine derivatives as ACC inhibitors and uses thereof” (Gilead Sciences, Inc., priority 2019, dated 2022)

Tested on: HepG2 cells
Test: In vitro De Novo Lipogenesis (DNL) assay, 13C-acetate incorporation into palmitic acid
Type: cell-based
Settings: Homo sapiens, 1 hour preincubation, 24 hours with 10 mM 13C-labeled acetate
Method: De Novo Lipogenesis (DNL) was measured in vitro in HepG2 cells by quantifying the incorporation of ^13C-labeled acetate into palmitic acid.
HepG2 cells were plated in growth medium (DMEM (Corning cat #15-018-CM) supplemented with 10% FBS (HyClone cat #SH30071-03), and 1× penicillin, streptomycin, glutamine (Corning cat #30-009-CI)) at 10,000 cells/well in a 384-well cell culture-treated plate (Greiner cat #781091). The cells were then incubated overnight at 37° C., 5% CO2. The next day, the cells were washed twice with sterile DPBS (Corning cat #21-031-CM) and the culture medium was changed to fresh growth medium. The compounds of interest were dosed to cells, followed by a 1 hour incubation at 37° C., 5% CO2. ^13C-labeled acetate (Sigma-Aldrich cat #279315-1G) was added to the culture medium at a concentration of 10 mM and the cells were incubated for 24 hours at 37° C., 5% CO2.
In order to analyze the lipid content of the HepG2 cells, the culture medium was removed and the cells were lysed by adding 30 μL of 0.1 M NaOH. After 5 minutes of incubation at room temperature, 15 μL of cell lysate was transferred to a 384-well deep-well plate (Sigma-Aldrich cat #BR701355-48EA) containing 15 μL of 7.3% KOH in ethanol and mixed. This plate was sealed and incubated at 70° C. for 4 hours to hydrolyze the lipids to free fatty acids. 100 μL of acetonitrile was then added and the plate was spun at 3,700 g for 20 minutes to separate the organic and aqueous phases. 50 μL from the top (organic) phase was transferred to a new 384-well plate (NUNC cat #264573) and the samples were analyzed by mass spectrometry using a RapidFire coupled to a QTOF mass spectrometer. The sum of the area under curve (AUC) for palmitate containing 3 to 7 ^13C was normalized with the AUC of oleate and plotted against compound concentration to determine the potency of ACC inhibitors. […]

EC50 | Structure (SMILES)
0.0059 µM | COc1ccccc1[C@H](Cn1c(=O)n(C(C)(C)C(=O)NS(=O)(=O)C2(C(F)F)CC2)c(=O)c2c(C)c(-c3ncco3)sc21)O[C@@H]1C[C@H]2CC[C@@H](C1)O2 [Example 2, 2-(1-((R)-2-(((1R,3s,5S)-8-oxabicyclo[3.2.1]octan-3-yl)oxy)-2-(2-methoxyphenyl)ethyl)-5-methyl-6-(oxazol-2-yl)-2,4-dioxo-1,4-dihydrothieno[2,3-d]pyrimidin-3(2H)-yl)-N-((1-(difluoromethyl)cyclopropyl)sulfonyl)-2-methylpropanamide]
0.268 µM | Cc1c(-n2nccn2)sc2c1c(=O)n(C1(C(=O)NS(=O)(=O)C3(C)CC3)CC1)c(=O)n2C[C@H](O[C@H]1C[C@H]2CC[C@@H](C1)O2)c1ccccc1OC(F)F [Example 23, 1-(1-((R)-2-(((1R,3r,5S)-8-oxabicyclo[3.2.1]octan-3-yl)oxy)-2-(2-(difluoromethoxy)phenyl)ethyl)-5-methyl-2,4-dioxo-6-(2H-1,2,3-triazol-2-yl)-1,4-dihydrothieno[2,3-d]pyrimidin-3(2H)-yl)-N-((1-methylcyclopropyl)sulfonyl)cyclopropane-1-carboxamide]
0.0298 µM | Cc1c(-c2ncco2)sc2c1c(=O)n(C1(C(=O)NS(=O)(=O)C3(C)CC3)CC1)c(=O)n2C[C@H](O[C@@H]1C[C@H]2CC[C@@H](C1)O2)c1ccccc1OC(F)F [Example 14, 1-(1-((R)-2-(((1R,3s,5S)-8-oxabicyclo[3.2.1]octan-3-yl)oxy)-2-(2-(difluoromethoxy)phenyl)ethyl)-5-methyl-6-(oxazol-2-yl)-2,4-dioxo-1,4-dihydrothieno[2,3-d]pyrimidin-3(2H)-yl)-N-((1-methylcyclopropyl)sulfonyl)cyclopropane-1-carboxamide]
0.0014 µM | COc1ccc(F)cc1[C@H](Cn1c(=O)n(C(C)(C)C(=O)NS(=O)(=O)C2(C)CC2)c(=O)c2c(C)c(-c3ncsn3)sc21)O[C@@H]1C[C@H]2CC[C@@H](C1)O2 [Example 31, 2-(1-((R)-2-(((1R,3s,5S)-8-oxabicyclo[3.2.1]octan-3-yl)oxy)-2-(5-fluoro-2-methoxyphenyl)ethyl)-5-methyl-2,4-dioxo-6-(1,2,4-thiadiazol-3-yl)-1,4-dihydrothieno[2,3-d]pyrimidin-3(2H)-yl)-2-methyl-N-((1-methylcyclopropyl)sulfonyl)propanamide]
0.0102 µM | Cc1c(-n2nccn2)sc2c1c(=O)n(C1(C(=O)NS(=O)(=O)C(C)(C)C)CC1)c(=O)n2C[C@H](O[C@@H]1C[C@H]2CC[C@@H](C1)O2)c1cc(F)ccc1OC(F)F [Example 29, 1-(1-((R)-2-(((1R,3s,5S)-8-oxabicyclo[3.2.1]octan-3-yl)oxy)-2-(2-(difluoromethoxy)-5-fluorophenyl)ethyl)-5-methyl-2,4-dioxo-6-(2H-1,2,3-triazol-2-yl)-1,4-dihydrothieno[2,3-d]pyrimidin-3(2H)-yl)-N-(tert-butylsulfonyl)cyclopropane-1-carboxamide]
0.916 µM | Cc1c(-n2nccn2)sc2c1c(=O)n(C1(C(=O)NS(=O)(=O)C(C)(C)C)CC1)c(=O)n2C[C@H](O[C@H]1C[C@H]2CC[C@@H](C1)O2)c1ccccc1OC(F)F [Example 22, 1-(1-((R)-2-(((1R,3r,5S)-8-oxabicyclo[3.2.1]octan-3-yl)oxy)-2-(2-(difluoromethoxy)phenyl)ethyl)-5-methyl-2,4-dioxo-6-(2H-1,2,3-triazol-2-yl)-1,4-dihydrothieno[2,3-d]pyrimidin-3(2H)-yl)-N-(tert-butylsulfonyl)cyclopropane-1-carboxamide]
0.882 µM | Cc1c(-c2ncco2)sc2c1c(=O)n(C1(C(=O)NS(=O)(=O)C(C)(C)C)CC1)c(=O)n2C[C@H](O[C@@H]1C[C@H]2CC[C@@H](C1)O2)c1ccccc1OC(F)F [Example 13, 1-(1-((R)-2-(((1R,3s,5S)-8-oxabicyclo[3.2.1]octan-3-yl)oxy)-2-(2-(difluoromethoxy)phenyl)ethyl)-5-methyl-6-(oxazol-2-yl)-2,4-dioxo-1,4-dihydrothieno[2,3-d]pyrimidin-3(2H)-yl)-N-(tert-butylsulfonyl)cyclopropane-1-carboxamide]
0.0246 µM | Cc1c(-n2nccn2)sc2c1c(=O)n(C1(C(=O)NS(=O)(=O)C3(C)CC3)CC1)c(=O)n2C[C@H](O[C@@H]1C[C@H]2CC[C@@H](C1)O2)c1ccccc1OC(F)F [Example 26, 1-(1-((R)-2-(((1R,3s,5S)-8-oxabicyclo[3.2.1]octan-3-yl)oxy)-2-(2-(difluoromethoxy)phenyl)ethyl)-5-methyl-2,4-dioxo-6-(2H-1,2,3-triazol-2-yl)-1,4-dihydrothieno[2,3-d]pyrimidin-3(2H)-yl)-N-((1-methylcyclopropyl)sulfonyl)cyclopropane-1-carboxamide]
0.0662 µM | Cc1c(-c2ncco2)sc2c1c(=O)n(C1(C(=O)NS(=O)(=O)C(C)(C)C)CC1)c(=O)n2C[C@H](O[C@@H]1C[C@H]2CC[C@@H](C1)O2)c1cc(F)ccc1OC(F)F [Example 11, 1-(1-((R)-2-(((1R,3s,5S)-8-oxabicyclo[3.2.1]octan-3-yl)oxy)-2-(2-(difluoromethoxy)-5-fluorophenyl)ethyl)-5-methyl-6-(oxazol-2-yl)-2,4-dioxo-1,4-dihydrothieno[2,3-d]pyrimidin-3(2H)-yl)-N-(tert-butylsulfonyl)cyclopropane-1-carboxamide]
2 µM | Cc1c(-c2ncco2)sc2c1c(=O)n([C@@H](C)C(=O)NS(=O)(=O)C1(C)CC1)c(=O)n2C[C@H](O[C@@H]1C[C@H]2CC[C@@H](C1)O2)c1cc(F)ccc1OC(F)F [Example 15, (S)-2-(1-((R)-2-(((1R,3s,5S)-8-oxabicyclo[3.2.1]octan-3-yl)oxy)-2-(2-(difluoromethoxy)-5-fluorophenyl)ethyl)-5-methyl-6-(oxazol-2-yl)-2,4-dioxo-1,4-dihydrothieno[2,3-d]pyrimidin-3(2H)-yl)-N-((1-methylcyclopropyl)sulfonyl)propanamide]
0.001 µM | COc1ccccc1[C@H](Cn1c(=O)n([C@H](C)C(=O)NS(=O)(=O)C2(C)CC2)c(=O)c2c(C)c(-c3ncco3)sc21)O[C@@H]1C[C@H]2CC[C@@H](C1)O2 [Example 18, (R)-2-(1-((R)-2-(((1R,3s,5S)-8-oxabicyclo[3.2.1]octan-3-yl)oxy)-2-(2-methoxyphenyl)ethyl)-5-methyl-6-(oxazol-2-yl)-2,4-dioxo-1,4-dihydrothieno[2,3-d]pyrimidin-3(2H)-yl)-N-((1-methylcyclopropyl)sulfonyl)propanamide]
0.0029 µM | COc1ccc(F)cc1[C@H](Cn1c(=O)n(C(C)(C)C(=O)NS(=O)(=O)C2(C)CC2)c(=O)c2c(C)c(-c3ncco3)sc21)O[C@@H]1C[C@H]2CC[C@@H](C1)O2 [Example 5, 2-(1-((R)-2-(((1R,3s,5S)-8-oxabicyclo[3.2.1]octan-3-yl)oxy)-2-(5-fluoro-2-methoxyphenyl)ethyl)-5-methyl-6-(oxazol-2-yl)-2,4-dioxo-1,4-dihydrothieno[2,3-d]pyrimidin-3(2H)-yl)-2-methyl-N-((1-methylcyclopropyl)sulfonyl)propanamide]
